Data as given in patent US20060287320A1, “Preparation of thioarabinofuranosyl compounds and use thereof” (Southern Research Institute, priority 1998, published 2006).

Assays:
[1] = test system: PC-3 Prostate; assay: In vitro IC50, 72 hour exposure, Natural Red assay; type: cell-based; details: read-out: IC50 Molar Values
Description: (§1) EXAMPLE 3 The following in vitro tests were carried out.
(§2) The above tests were carried out with a 72 hour exposure to the compound using Natural Red assay for all cell lines except SK-MEL 28 which was done with SRB assay.

[2] = test system: CAK1-1 Renal; assay: In vitro IC50, 72 hour exposure, Natural Red assay; type: cell-based; details: read-out: IC50 Molar Values
Description: as §1, §2

[3] = test system: ZR-75-1 Mammary; assay: In vitro IC50, 72 hour exposure, Natural Red assay; type: cell-based; details: Homo sapiens, read-out: IC50 Molar Values
Description: as §1, §2

[4] = test system: DLD-1 Colon; assay: In vitro IC50, 72 hour exposure, Natural Red assay; type: cell-based; details: Homo sapiens, read-out: IC50 Molar Values
Description: as §1, §2

[5] = test system: LOX IMV1 Melanoma; assay: In vitro IC50, 72 hour exposure, Natural Red assay; type: cell-based; details: read-out: IC50 Molar Values
Description: as §1, §2

[6] = test system: NC1-H23 Lung; assay: In vitro IC50, 72 hour exposure, Natural Red assay; type: cell-based; details: read-out: IC50 Molar Values
Description: as §1, §2

[7] = test system: SC Colon 36 Tumor; assay: Response of SC Colon 36 Tumor to Treatment; type: in vivo; details: 18 Mg/Kg IP, Q 1D × 9 day 9
Description: (§3) The following in vivo tests were carried out to illustrate the effectiveness of the compounds of the present invention.

[8] = test system: SC CAKI-1 Renal Tumor; assay: Response of SC CAKI-1 Renal Tumor to Treatment; type: in vivo
Description: as §3

[9] = test system: SC HCT-116 Colon Tumor; assay: Response of SC HCT-116 Colon Tumor to Treatment; type: in vivo; details: Q 1D × 9 day 6
Description: as §3

[10] = test system: CEM cells; assay: Retention of araCTP and T-araCTP in CEM cells (FIG. 2); type: cell-based
Description: […]. Samples were collected at various times after the cells were resuspended in fresh medium, and the amount of radioactivity in the 5′-triphosphate peak was determined using SAX HPLC. In this experiment there was 0.639 pmoles araCTP/10^6 cells and 0.246 pmoles of T-araCTP after the 1 hour incubation with radiolabeled compound.

[11] = test system: CEM cells; assay: Initial half-life of triphosphates in CEM cells; type: cell-based; details: CEM cells after 1 hour with 100 nM radiolabeled nucleoside, then fresh medium; 5′-triphosphate peak
Description: Samples were collected at various times after the cells were resuspended in fresh medium, and the amount of radioactivity in the 5'-triphosphate peak was determined using SAX HPLC. The data presented are the mean and standard deviation from 3 separate experiments.

Nc1nc(=O)n([C@@H]2S[C@H](CO)[C@@H](O)[C@@H]2O)cc1F [5-fluorothioaraC, 1-(4-Thio-β-D-arabinofuranosyl)5-fluorocytosine]
IC50 [1]: 100 µM | IC50 [2]: 20 µM | IC50 [3]: 0.6 µM | IC50 [4]: 80 µM | IC50 [5]: 6 µM | IC50 [6]: 3 µM

CCCCCCCCCCCCCCCC(=O)Nc1ccn([C@@H]2O[C@H](CO)[C@@H](O)[C@@H]2O)c(=O)n1 [Palmo-ARA-C]
Days Delay (T − C) [7]: >38.5 days | Days to 2 Doubling [7]: >49.0 days | Non-Specific Deaths/Total [7]: 0/5 | Tumor Free Surv/Total [7]: 4/5 | Tumor Regression Duration Med [7]: 34.6 days | Tumor Regression Duration Range (Days) [7]: 35-35 Days | Tumor Regression Number of Complete [7]: 5 | Tumor Regression Number of Partial [7]: 0 | Days Delay (T − C) ([8]; 22.5 Mg/Kg IP, 0 1D × 9 day 7): 26.5 days | Days to 3 Doubling ([8]; 22.5 Mg/Kg IP, 0 1D × 9 day 7): 36.0 days | Non-Specific Deaths/Total ([8]; 22.5 Mg/Kg IP, 0 1D × 9 day 7): 1/6 | Tumor Free Surv/Total ([8]; 22.5 Mg/Kg IP, 0 1D × 9 day 7): 0/6 | Tumor Regression Duration Med ([8]; 22.5 Mg/Kg IP, 0 1D × 9 day 7): 9.1 days | Tumor Regression Duration Range (Days) ([8]; 22.5 Mg/Kg IP, 0 1D × 9 day 7): 9-9 Days | Tumor Regression Number of Complete ([8]; 22.5 Mg/Kg IP, 0 1D × 9 day 7): 1 | Tumor Regression Number of Partial ([8]; 22.5 Mg/Kg IP, 0 1D × 9 day 7): 0 | Days Delay (T − C) ([8]; 45 Mg/Kg IP, Q 1D × 5 day 7): 31.7 days | Days to 3 Doubling ([8]; 45 Mg/Kg IP, Q 1D × 5 day 7): 41.2 days | Non-Specific Deaths/Total ([8]; 45 Mg/Kg IP, Q 1D × 5 day 7): 4/6 | Toxicity remark under Days Delay (T − C) ([8]; 45 Mg/Kg IP, Q 1D × 5 day 7): (Toxic) | Tumor Free Surv/Total ([8]; 45 Mg/Kg IP, Q 1D × 5 day 7): 0/6 | Tumor Regression Number of Complete ([8]; 45 Mg/Kg IP, Q 1D × 5 day 7): 0 | Tumor Regression Number of Partial ([8]; 45 Mg/Kg IP, Q 1D × 5 day 7): 0 | Days Delay (T − C) ([9]; 15 Mg/Kg IP): 6.0 days | Days to 2 Doubling ([9]; 15 Mg/Kg IP): 14.9 days | Non-Specific Deaths/Total ([9]; 15 Mg/Kg IP): 0/6 | Tumor Free Surv/Total ([9]; 15 Mg/Kg IP): 0/6 | Tumor Regression Number of Complete ([9]; 15 Mg/Kg IP): 0 | Tumor Regression Number of Partial ([9]; 15 Mg/Kg IP): 0 | Days Delay (T − C) ([9]; 22.5 Mg/Kg IP): 15.1 days | Days to 2 Doubling ([9]; 22.5 Mg/Kg IP): 24.0 days | Non-Specific Deaths/Total ([9]; 22.5 Mg/Kg IP): 0/6 | Tumor Free Surv/Total ([9]; 22.5 Mg/Kg IP): 0/6 | Tumor Regression Duration Med ([9]; 22.5 Mg/Kg IP): 24.2 days | Tumor Regression Duration Range (Days) ([9]; 22.5 Mg/Kg IP): 24-24 Days | Tumor Regression Number of Complete ([9]; 22.5 Mg/Kg IP): 1 | Tumor Regression Number of Partial ([9]; 22.5 Mg/Kg IP): 0

Nc1ccn(C2SC(COP(=O)(O)OP(=O)(O)OP(=O)(O)O)C(O)C2O)c(=O)n1 (stereo not shown) [T-araCTP]
T-araCTP after the 1 hour incubation [10]: 0.246 pmol | Initial Half-Life, Hours (SD) [11]: 10.8 ± 1.80 h

Nc1ccn(C2CC(O)C(COP(=O)(O)OP(=O)(O)OP(=O)(O)O)S2)c(=O)n1 (stereo not shown) [T-dCTP]
Initial Half-Life, Hours (SD) [11]: 1.10 ± 0.35 h
